PMC10111423, “Antimalarial Imidazopyridines Incorporating an Intramolecular Hydrogen Bonding Motif: Medicinal Chemistry and Mechanistic Studies” (ACS Infectious Diseases, 2023)
“Also recorded” adds a separate entry of the source.

Key:
[1] = system: P. falciparum parasites; assay: Cellular heme fractionation (heme speciation) assay; format: cell-based, Plasmodium falciparum
Procedure: At this juncture, it is noteworthy that a true hemozoin inhibitor causes a dose-dependent increase in “free” heme and a corresponding decrease in hemozoin. page 23: Table S2: Concentrations of fluorescent dyes used for confocal imaging of P. falciparum with respective excitation lasers and emission filter settings. Dye Concentration Excitation Laser Emission filter DRAQ 5 500 nM 580 nm 600-630 nm LysoTracker 100 nM 561 nm 575-630 nm Nile Red 100 nM 561 nm 575-630 nm ER-Tracker 100 nM 561 nm 575-630 nm MitoTracker 100 nM 561 nm 650-710 nm 1.3-NBD 50 nM 420 nm 500-550 nm 3.14-NBD 75 nM 420 nm 500-550 nm Heme Fractionation Assay […] The heme fractionation assay was performed according to the methods previously described.9 After the IC50 of the target compounds was determined, a counting plate was prepared by adding 10 μL of the isolated washed trophozoites to the corresponding wells of a flat-bottomed 96-well plate. […] The hemocytometer determined cell counts for these six samples were statistically compared to the cell counts determined by flow cytometry to test for agreement. 10 μL of cells from the counting plate were loaded onto a bright-lined hemocytometer, and five large squares were counted after 10 minutes of settling. The concentration of cells in each well of the plate was determined using equation 1: CH 1⁄4 […] […] Typically, 10,000 events were counted for each sample. […]

[2] = Metabolite identification in mouse liver microsomes; format: in vitro ADME; conditions: NADPH-dependent
Procedure: started by addition of NADPH (1 mM) as cofactor and shaken for 30 minutes at 37 °C. The
reactions were then quenched by adding 300 µL of ice-cold acetonitrile containing internal
standard (carbamazepine, 0.0236 µg/mL) and centrifuged. The supernatant was transferred to
a fresh 96-well plate and analysed by LC-MS/MS (Agilent Rapid Resolution HPLC, AB
SCIEX 4500 MS). The relative loss of parent compound over time was monitored and plots
(concentration vs. time) were prepared per compound to determine the first order rate constant
for compound depletion. This was in turn used to calculate half-life, in vitro intrinsic clearance
and in vivo hepatic extraction ratio.6
Metabolite Identification Studies
The test compound (10 µM) was incubated at 37 °C in a solution containing 1 mg/ml
microsomes (MLM, male mouse CD1, Lot No. 1510043, Xenotech), magnesium chloride (5
mM) and NADPH (1 mM) in sodium phosphate buffer (100 mM, pH 7.4) for 60 minutes while
shaking. The samples were then prepared by ice-cold acetonitrile precipitation, centrifuged,
and filtered for LC-MS/MS analysis.
Controls containing all the sample constituents (not incubated), and in which NADPH,
microsomes or the test compound were individually excluded were also prepared and handled
similarly to the test sample. Verapamil (10 µM) was incubated concomitantly as a positive
Fluorescence Live-cell Microscopy […]

CCN(CCNc1cc2[nH]c(-c3cccc(C(F)(F)F)c3)nc2cn1)Cc1ccc(Cl)cc1O [Compound 14, 5-Chloro-2-((ethyl(2-((2-(3-(trifluoromethyl)phenyl)-1H-imidazo[4,5-c]pyridin-6-yl)amino)ethyl)amino)methyl)phenol]
Levels of hemozoin (Hz) Fe ([1]; between 0.5–2× IC50): significant decrease; also recorded: decreased
Levels of "free" heme Fe ([1]; increasing concentrations of compound): no statistically significant change; also recorded: no statistically significant effect
Number of metabolites identified [2]: 4
